Results on two molecules are retold here after ChEMBL document CHEMBL1795274, “Synthesis and antiviral activity of cyclopropyl-spirocarbocyclic adenosine, (4R,5S,6R,7R)-4-(6-amino-9H-purin-9-yl)-7-(hydroxymethyl)spiro[2.4]heptane-5,6-diol against hepatitis C virus” (Bioorg Med Chem Lett, 2011).

Series [1] has as its system Hepatitis C virus. As to the kind of experiment: Antiviral activity against HCV1a infected in human HuH7 cells expressing E2 glycoprotein assessed as inhibition of viral RNA replication after 5 days. The conditions noted are these: subtype 1a, Huh-7, 120 h. Type of series: functional, organism-based, Hepacivirus hominis.
Series [2] is described as follows: Cytotoxicity against human HuH7 cells expressing E2 glycoprotein assessed as reduction of rRNA level after 5 days. The series is classed as cell-based, Huh-7.
Series [3] is described as follows: Selectivity index, ratio of CC50 for human HuH7 cells to EC50 for HCV 1a. Also on record: species or system Huh-7.
Series [4] relates to Hepatitis C virus. As to the kind of experiment: Antiviral activity against HCV1b infected in human Huh7 cells expressing E2 glycoprotein assessed as inhibition of viral RNA replication after 5 days. Type of series: functional, organism-based, Hepacivirus hominis. To be noted: genotype 1b, Huh-7, 120 h.
Series [5] has as its system Vaccinia virus. Kind of series: Antiviral activity against Vaccinia virus infected in human HuH7 cells assessed as reduction of virus-induced cytopathic-effect. Type of series: functional, organism-based. The conditions noted are these: Orthopoxvirus vaccinia, Huh-7. For orientation: Damage to the host cells serves as the signal in cytopathic effect assays.
The subject of series [6] is Measles morbillivirus. As to the kind of experiment: Antiviral activity against Measles virus infected in human HuH7 cells assessed as reduction of viral level by neutral red assay. The series is classed as functional, organism-based. The conditions noted are these: Huh-7.
For series [7], the system named is unidentified adenovirus. As to the kind of experiment: Antiviral activity against Adenovirus infected in human HuH7 cells assessed as reduction of viral level by neutral red assay. Type of series: functional, organism-based. The conditions noted are these: Huh-7.
Series [8] has as its system unidentified adenovirus. As to the kind of experiment: Antiviral activity against Adenovirus infected in human HuH7 cells assessed as reduction of viral level by visual assay. Type of series: functional, organism-based. To be noted: Huh-7.
A short description of series [9]: Selectivity index, ratio of CC50 for human HuH7 cells to EC50 for Vaccinia virus. To be noted: read-out: Ratio CC50/EC50. The series is classed as toxicity, cell-based, Huh-7.
The nature of series [10]: Selectivity index, ratio of CC50 for human HuH7 cells to EC50 for Measles virus by neutral red assay. The series is classed as toxicity, cell-based, Huh-7. To be noted: read-out: Ratio CC50/EC50.
Series [11] can be described thus: Selectivity index, ratio of CC50 for human HuH7 cells to EC50 for Measles virus by visual assay. The series is classed as toxicity, cell-based, Huh-7. The conditions noted are these: read-out: Ratio CC50/EC50.
The nature of series [12]: Selectivity index, ratio of CC50 for human HuH7 cells to EC50 for Adenovirus by neutral red assay. To be noted: read-out: Ratio CC50/EC50. The series is classed as toxicity, cell-based, Huh-7.
Series [13] in a line: Selectivity index, ratio of CC50 for human HuH7 cells to EC50 for Adenovirus by visual assay. The series is classed as toxicity, cell-based, Huh-7. To be noted: read-out: Ratio CC50/EC50.
The nature of series [14]: Cytotoxicity against human HuH7 cells. Type of series: cell-based, Huh-7.
Series [15] relates to Cowpox virus. Kind of series: Antiviral activity against Cowpox virus. The series is classed as functional, organism-based.
Series [16] deals with Hepatitis B virus. Kind of series: Antiviral activity against Hepatitis B virus. Type of series: functional, organism-based.
In series [17] the test system is Human alphaherpesvirus 1. Kind of series: Antiviral activity against HSV1. The series is classed as functional, organism-based.
The test system of series [18] is Human alphaherpesvirus 2. As to the kind of experiment: Antiviral activity against HSV2. The series is classed as functional, organism-based.
Series [19] has as its system Human alphaherpesvirus 3. Kind of series: Antiviral activity against Varicella zoster virus. The series is classed as functional, organism-based.
For series [20], the system named is SARS-CoV. Kind of series: Antiviral activity against SARS coronavirus. The series is classed as functional, organism-based. To be noted: Severe acute respiratory syndrome-related coronavirus.
Series [21] concerns Influenza A virus. As to the kind of experiment: Antiviral activity against Influenza A virus H1N1. The series is classed as functional, organism-based.
In series [22] the test system is Influenza A virus. Kind of series: Antiviral activity against Influenza A virus H3N2. Type of series: functional, organism-based.
Series [23] deals with Influenza A virus. As to the kind of experiment: Antiviral activity against Influenza A virus H5N1. Type of series: functional, organism-based.
Series [24] has as its system Venezuelan equine encephalitis virus. Kind of series: Antiviral activity against Venezuelan equine encephalitis virus. Type of series: functional, organism-based.
The subject of series [25] is West Nile virus. As to the kind of experiment: Antiviral activity against West Nile virus. The series is classed as functional, organism-based.
For series [26], the system named is Enterovirus. Kind of series: Antiviral activity against Rhinovirus. The series is classed as functional, organism-based.
The test system of series [27] is Yellow fever virus. As to the kind of experiment: Antiviral activity against Yellow fever virus. Type of series: functional, organism-based.
Series [28] has as its system Human respirovirus 3. Kind of series: Antiviral activity against Human parainfluenza virus 3. The series is classed as functional, organism-based.
The nature of series [29]: Selectivity index, ratio of CC50 for human HuH7 cells to EC50 for HCV 1b. Also noted: species or system Huh-7.
The test system of series [30] is Measles morbillivirus. As to the kind of experiment: Antiviral activity against Measles virus infected in human HuH7 cells assessed as reduction of viral level by visual assay. Type of series: functional, organism-based. To be noted: Huh-7.

Activity calls are given as the source filed them. The rule behind the calls is not given here.

Regarding `C[C@@]1(O)[C@H](O)[C@@H](CO)O[C@H]1n1ccc(N)nc1=O`, in [1], the EC50 (in general, the concentration that produces a half-maximal response) is 1.7 µM and the EC90 – broadly, the concentration needed for an effect of 90% – stood at 8.2 µM. Further, in series [2], the 50% cytotoxic concentration (CC50) (commonly the concentration that lowers cell viability or growth by half) at 120 h is over 300 µM. Further, in [3], the “Ratio CC50/EC50” value was over 272.

`Nc1ncnc2c1ncn2[C@H]1[C@H](O)[C@H](O)[C@@H](CO)C12CC2`: the EC50 in series [1] stood at 0.273 µM; in [4] it was 0.368 µM; in series [5] it was 42.7 µM; in [6], 9 µM; in [7] it was 3 µM; in [8] it was 3 µM. Besides, the EC50 in series [30] was found to be 7 µM. In addition, the EC90 in [1] was found to be 3 µM; in [4] it was 1.2 µM. Moreover, the CC50 at 120 h in series [2] is over 100 µM. Further, the “Ratio CC50/EC50” value is listed as over 366 in series [3] and over 272 in series [29]. Besides, the selectivity ratio in series [9] was over 7.1; in series [10], 5; in series [11], 2; in [12], 4; in [13], 3. In [14], the CC50 is over 10 µM. Besides, the result in [15], in series [16], in [17], in series [18], in series [19] and in [20] was inactive. The outcome in [21], in [22], in series [23], in series [24], in [25] and in series [26] was inactive. Further, the result in series [27] and in series [28] was inactive.
